From PubChem BioAssay AID248 (DTP/NCI, 2004)
Where “and” joins values, the source holds several entries; their conditions need not be identical. Identical values can stand only once. Toxic doses and inconclusive results are not listed. Rule as the data show it: active = T/C of 150% or more; inactive = T/C below 125%.

System: L1210 leukemia ip in BDF1 mice, survival T/C
Experiment: NCI In Vivo Anticancer Drug Screen. Data for tumor model L1210 Leukemia (intraperitoneal) in B6D2F1 (BDF1) mice
Conditions: endpoint: mean survival time, higher = longer survival
Method in brief: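 Mice bearing the transplanted tumor received compound or vehicle. Survival of the treated group was divided by that of the vehicle-treated control group to give the ratio.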

[1] = dose: 12.5 mg/kg/injection, schedule: Q01DX009 (ip), vehicle: Klucel (hydroxypropylcellulose) (HPC)
[2] = dose: 25.0 mg/kg/injection, schedule: Q01DX009 (ip), vehicle: Klucel (hydroxypropylcellulose) (HPC)
[3] = dose: 50.0 mg/kg/injection, schedule: Q01DX009 (ip), vehicle: Klucel (hydroxypropylcellulose) (HPC)
[4] = dose: 100.0 mg/kg/injection, schedule: Q01DX009 (ip), vehicle: Klucel (hydroxypropylcellulose) (HPC)
[5] = dose: 100.0 mg/kg/injection, schedule: Q04DX003 (ip), vehicle: Klucel (hydroxypropylcellulose) (HPC)
[6] = dose: 200.0 mg/kg/injection, schedule: Q01DX009 (ip), vehicle: Klucel (hydroxypropylcellulose) (HPC)
[7] = dose: 200.0 mg/kg/injection, schedule: Q04DX003 (ip), vehicle: Klucel (hydroxypropylcellulose) (HPC)
[8] = dose: 400.0 mg/kg/injection, schedule: Q04DX003 (ip), vehicle: Klucel (hydroxypropylcellulose) (HPC)
[9] = dose: 100.0 mg/kg/injection, schedule: Q01DX001 (ip), vehicle: saline
[10] = dose: 200.0 mg/kg/injection, schedule: Q01DX001 (ip), vehicle: saline
[11] = dose: 400.0 mg/kg/injection, schedule: Q01DX001 (ip), vehicle: saline
[12] = dose: 100.0 mg/kg/injection, schedule: Q01DX009 (ip), vehicle: saline
[13] = dose: 100.0 mg/kg/injection, schedule: Q04DX003 (ip), vehicle: saline
[14] = dose: 200.0 mg/kg/injection, schedule: Q01DX009 (ip), vehicle: saline
[15] = dose: 200.0 mg/kg/injection, schedule: Q04DX003 (ip), vehicle: saline
[16] = dose: 400.0 mg/kg/injection, schedule: Q01DX009 (ip), vehicle: saline
[17] = dose: 400.0 mg/kg/injection, schedule: Q04DX003 (ip), vehicle: saline
[18] = dose: 15.0 mg/kg/injection, schedule: Q01DX Z (ip), vehicle: saline
[19] = dose: 30.0 mg/kg/injection, schedule: Q01DX Z (ip), vehicle: saline
[20] = dose: 400.0 mg/kg/injection, schedule: Q01DX009 (ip), vehicle: Klucel (hydroxypropylcellulose) (HPC)
[21] = dose: 100.0 mg/kg/injection, schedule: Q01DX001 (ip), vehicle: carboxymethylcellulose (CMC)
[22] = dose: 200.0 mg/kg/injection, schedule: Q01DX001 (ip), vehicle: carboxymethylcellulose (CMC)
[23] = dose: 400.0 mg/kg/injection, schedule: Q01DX001 (ip), vehicle: carboxymethylcellulose (CMC)

Measured: T/C

CC(CCC(C)OS(C)(=O)=O)OS(C)(=O)=O (configuration not stated)
inactive: dose: 2.0 mg/kg/injection, schedule: Q01DX010 (ip), vehicle: saline 86 % of control and 87 % of control | dose: 3.1 mg/kg/injection, schedule: Q01DX009 (ip), vehicle: Klucel (hydroxypropylcellulose) (HPC) 96 % of control | dose: 4.0 mg/kg/injection, schedule: Q01DX009 (ip), vehicle: saline 97 % of control | dose: 4.0 mg/kg/injection, schedule: Q01DX010 (ip), vehicle: saline 100 % of control | dose: 6.25 mg/kg/injection, schedule: Q01DX009 (ip), vehicle: Klucel (hydroxypropylcellulose) (HPC) 102 % of control and 103 % of control and 101 % of control | dose: 6.25 mg/kg/injection, schedule: Q04DX002 (ip), vehicle: Klucel (hydroxypropylcellulose) (HPC) 96 % of control | dose: 8.0 mg/kg/injection, schedule: Q01DX009 (ip), vehicle: saline 101 % of control | dose: 8.0 mg/kg/injection, schedule: Q01DX010 (ip), vehicle: saline 89 % of control and 90 % of control | [1] 105 % of control [middle of 4 runs] | dose: 12.5 mg/kg/injection, schedule: Q04DX002 (ip), vehicle: Klucel (hydroxypropylcellulose) (HPC) 96 % of control and 100 % of control | dose: 16.0 mg/kg/injection, schedule: Q01DX009 (ip), vehicle: saline 108 % of control | dose: 16.0 mg/kg/injection, schedule: Q01DX010 (ip), vehicle: saline 106 % of control and 114 % of control | [2] 102 % of control and 88 % of control and 108 % of control | dose: 25.0 mg/kg/injection, schedule: Q04DX002 (ip), vehicle: Klucel (hydroxypropylcellulose) (HPC) 96 % of control and 93 % of control and 94 % of control | dose: 32.0 mg/kg/injection, schedule: Q01DX009 (ip), vehicle: saline 103 % of control | [3] 87 % of control | dose: 50.0 mg/kg/injection, schedule: Q01DX009 (ip), vehicle: saline with Tween-80 91 % of control and 93 % of control | dose: 50.0 mg/kg/injection, schedule: Q04DX002 (ip), vehicle: Klucel (hydroxypropylcellulose) (HPC) 107 % of control | dose: 100.0 mg/kg/injection, schedule: Q01DX009 (ip), vehicle: saline with Tween-80 98 % of control and 97 % of control | dose: 200.0 mg/kg/injection, schedule: Q01DX009 (ip), vehicle: saline with Tween-80 91 % of control and 87 % of control

CNC(=O)c1ccccc1-c1ccccc1C(=O)NC
inactive: dose: 100.0 mg/kg/injection, schedule: Q01DX001 (ip), vehicle: other 102 % of control | dose: 200.0 mg/kg/injection, schedule: Q01DX001 (ip), vehicle: other 102 % of control | dose: 400.0 mg/kg/injection, schedule: Q01DX001 (ip), vehicle: other 98 % of control

Cc1cccc(C)c1NC(=O)Oc1ccccc1C(N)=O
inactive: [4] 97 % of control | [5] 98 % of control | [6] 100 % of control | [7] 104 % of control | [8] 94 % of control

Cn1c(=O)cc(C=Nc2ccc(N=Nc3ccccc3)cc2)c2ccccc21
inactive: [9] 94 % of control | [10] 96 % of control | [11] 87 % of control

O=C(Cn1cc(F)c(=O)[nH]c1=O)c1cccs1
inactive: [12] 89 % of control | [13] 100 % of control | [14] 89 % of control | [15] 106 % of control | [16] 89 % of control | [17] 111 % of control

C/C(=N/N=C(N)N)C(F)(F)F
inactive: [18] 104 % of control | dose: 15.0 mg/kg/injection, schedule: Q01DX Z (oral), vehicle: saline 108 % of control | [19] 87 % of control | dose: 30.0 mg/kg/injection, schedule: Q01DX Z (oral), vehicle: saline 106 % of control

S=c1[nH]nc(Nc2ccccc2Cl)s1
inactive: [4] 97 % of control | [6] 98 % of control | [20] 109 % of control

O=C(NC(=S)Nc1ccc(Cl)cc1)c1ccccc1
inactive: [2] 95 % of control | [3] 93 % of control | [4] 93 % of control and 89 % of control

O=C(NC(=S)Nc1ccc(Cl)cc1C(=O)c1ccccc1)c1ccc(Cl)cc1Cl
inactive: [4] 93 % of control | [6] 96 % of control | [20] 94 % of control

O=C(O)c1ccc2c3c(ccc([N+](=O)[O-])c13)C=C2
inactive: dose: 100.0 mg/kg/injection, schedule: Q04DX003 (ip), vehicle: saline with Tween-80 96 % of control | dose: 200.0 mg/kg/injection, schedule: Q04DX003 (ip), vehicle: saline with Tween-80 94 % of control | dose: 400.0 mg/kg/injection, schedule: Q04DX003 (ip), vehicle: saline with Tween-80 103 % of control

CC(=O)NCCCOc1ccc([N+](=O)[O-])cc1Cl
inactive: dose: 100.0 mg/kg/injection, schedule: Q01DX001 (ip), vehicle: Klucel (hydroxypropylcellulose) (HPC) 100 % of control | [4] 102 % of control | [5] 101 % of control | dose: 200.0 mg/kg/injection, schedule: Q01DX001 (ip), vehicle: Klucel (hydroxypropylcellulose) (HPC) 101 % of control | [6] 110 % of control and 112 % of control | [7] 113 % of control | [8] 103 % of control

CCCCCCCCCCCCC/C=N\N=C(N)N
inactive: [18] 96 % of control | [19] 89 % of control | dose: 60.0 mg/kg/injection, schedule: Q01DX Z (ip), vehicle: saline 89 % of control | dose: 60.0 mg/kg/injection, schedule: Q01DX Z (oral), vehicle: saline 98 % of control | dose: 120.0 mg/kg/injection, schedule: Q01DX Z (ip), vehicle: saline 96 % of control | dose: 120.0 mg/kg/injection, schedule: Q01DX Z (oral), vehicle: saline 101 % of control | dose: 240.0 mg/kg/injection, schedule: Q01DX Z (oral), vehicle: saline 101 % of control | dose: 480.0 mg/kg/injection, schedule: Q01DX Z (oral), vehicle: saline 98 % of control

COC(=O)C1(N(C)C)c2ccccc2-c2ccccc21
inactive: [21] 105 % of control

Cc1c(Cl)ccc2c(C(=O)O)cc(-c3ccc(Cl)cc3)nc12
inactive: [21] 100 % of control | [22] 94 % of control | [23] 92 % of control

CCCCN(CCCC)CCCNc1c2c(nc3ccccc13)CCCC2
inactive: dose: 5.0 mg/kg/injection, schedule: Q01DX001 (ip), vehicle: saline 95 % of control | dose: 10.0 mg/kg/injection, schedule: Q01DX001 (ip), vehicle: saline 95 % of control | dose: 20.0 mg/kg/injection, schedule: Q01DX001 (ip), vehicle: saline 93 % of control | dose: 40.0 mg/kg/injection, schedule: Q01DX001 (ip), vehicle: saline 89 % of control | dose: 50.0 mg/kg/injection, schedule: Q01DX001 (ip), vehicle: saline 91 % of control | dose: 80.0 mg/kg/injection, schedule: Q01DX001 (ip), vehicle: saline 93 % of control

OCC1OC(Oc2cc(O)cc3[o+]c(-c4cc(O)c(O)c(O)c4)c(OC4(CO)OC(CO)C(O)C4O)cc23)C(O)C(O)C1O (configuration not stated)
inactive: [21] 95 % of control | [22] 98 % of control | [23] 98 % of control

Cn1nnc(N)n1
inactive: [9] 98 % of control | [13] 102 % of control | [10] 100 % of control | [15] 96 % of control | [11] 100 % of control | [17] 102 % of control

O[C@H](c1cc(C(F)(F)F)nc2c(C(F)(F)F)cccc12)[C@@H]1CCCCN1
inactive: [1] 94 % of control | dose: 12.5 mg/kg/injection, schedule: Q04DX003 (ip), vehicle: saline 98 % of control | [2] 103 % of control | dose: 25.0 mg/kg/injection, schedule: Q04DX003 (ip), vehicle: saline 98 % of control | dose: 50.0 mg/kg/injection, schedule: Q04DX003 (ip), vehicle: saline 97 % of control

CCOC(=O)CNC(N)=O
inactive: [12] 96 % of control | [14] 107 % of control | [16] 96 % of control

Nc1cc2c3c(cccc3c1Br)C(=O)OC2=O
inactive: dose: 100.0 mg/kg/injection, schedule: Q04DX002 (ip), vehicle: Klucel (hydroxypropylcellulose) (HPC) 97 % of control | dose: 200.0 mg/kg/injection, schedule: Q04DX002 (ip), vehicle: Klucel (hydroxypropylcellulose) (HPC) 108 % of control
